Reference: publication PMC3523469 (Investigational New Drugs, 2012)
Where two headings read alike, the source gives them in different places.

Type: in vivo, Japanese patients
[1] = across all dose levels, 13 patients

SMILES: COc1cc2ncnc(Nc3ccc(F)c(Cl)c3)c2cc1NC(=O)/C=C/CN1CCCCC1 [dacomitinib, Dacomitinib]
- Alanine aminotransferase increased, number of patients with treatment-related AE (45 mg QD (n = 7), G3): 1
- Aspartate aminotransferase increased, number of patients with treatment-related AE (45 mg QD (n = 7), G3): 1
- Blood bilirubin increased, number of patients with treatment-related AE (45 mg QD (n = 7), G3): 1
- Cheilitis, number of patients with treatment-related AE (45 mg QD (n = 7), G3): 0
- Conjunctivitis, number of patients with treatment-related AE (45 mg QD (n = 7), G3): 0
- Decreased appetite, number of patients with treatment-related AE (45 mg QD (n = 7), G3): 1
- Diarrhea, number of patients with treatment-related AE (45 mg QD (n = 7), G3): 0
- Dry skin, number of patients with treatment-related AE (45 mg QD (n = 7), G3): 0
- ECG QT prolonged, number of patients with treatment-related AE (45 mg QD (n = 7), G3): 0
- Edema, number of patients with treatment-related AE (45 mg QD (n = 7), G3): 0
- Fatigue, number of patients with treatment-related AE (45 mg QD (n = 7), G3): 0
- Hematuria, number of patients with treatment-related AE (45 mg QD (n = 7), G3): 0
- Hypertrichosis, number of patients with treatment-related AE (45 mg QD (n = 7), G3): 0
- Leukopenia, number of patients with treatment-related AE (45 mg QD (n = 7), G3): 0
- Nausea, number of patients with treatment-related AE (45 mg QD (n = 7), G3): 0
- Palmar–plantar erythrodysesthesia, number of patients with treatment-related AE (45 mg QD (n = 7), G3): 0
- Paronychia, number of patients with treatment-related AE (45 mg QD (n = 7), G3): 0
- Proteinuria, number of patients with treatment-related AE (45 mg QD (n = 7), G3): 0
- Rash, number of patients with treatment-related AE (45 mg QD (n = 7), G3): 2
- Skin fissures, number of patients with treatment-related AE (45 mg QD (n = 7), G3): 0
- Stomatitis, number of patients with treatment-related AE (45 mg QD (n = 7), G3): 0
- Weight decreased, number of patients with treatment-related AE (45 mg QD (n = 7), G3): 0
- device-related infection, treatment-related grade 3 AE, number (45 mg dosing cohort): 1
- treatment-related grade 3 AEs, number (45 mg dosing cohort): seven
- Dose-limiting toxicity (DLT) (15, 30, 45 mg QD, single dose to day 21 of cycle 1, 12 patients evaluated): no DLTs observed at any dose
- clinically recommended phase II dose (RP2D) (Japanese patients with advanced solid tumors): 45 mg QD
- Alanine aminotransferase increased, % of patients with treatment-related AE (Total (N = 13)): 15%
- Alanine aminotransferase increased, number of patients with treatment-related AE (Total (N = 13)): 2
- Aspartate aminotransferase increased, % of patients with treatment-related AE (Total (N = 13)): 15%
- Aspartate aminotransferase increased, number of patients with treatment-related AE (Total (N = 13)): 2
- Blood bilirubin increased, % of patients with treatment-related AE (Total (N = 13)): 15%
- Blood bilirubin increased, number of patients with treatment-related AE (Total (N = 13)): 2
- Cheilitis, % of patients with treatment-related AE (Total (N = 13)): 38%
- Cheilitis, number of patients with treatment-related AE (Total (N = 13)): 5
- Conjunctivitis, % of patients with treatment-related AE (Total (N = 13)): 31%
- Conjunctivitis, number of patients with treatment-related AE (Total (N = 13)): 4
- Decreased appetite, % of patients with treatment-related AE (Total (N = 13)): 23%
- Decreased appetite, number of patients with treatment-related AE (Total (N = 13)): 3
- Diarrhea, % of patients with treatment-related AE (Total (N = 13)): 92%
- Diarrhea, number of patients with treatment-related AE (Total (N = 13)): 12
- Dry skin, % of patients with treatment-related AE (Total (N = 13)): 61.5%
- Dry skin, number of patients with treatment-related AE (Total (N = 13)): 8
- ECG QT prolonged, % of patients with treatment-related AE (Total (N = 13)): 15%
- ECG QT prolonged, number of patients with treatment-related AE (Total (N = 13)): 2
- Edema, % of patients with treatment-related AE (Total (N = 13)): 15%
- Edema, number of patients with treatment-related AE (Total (N = 13)): 2
- Fatigue, % of patients with treatment-related AE (Total (N = 13)): 46%
- Fatigue, number of patients with treatment-related AE (Total (N = 13)): 6
- Hematuria, % of patients with treatment-related AE (Total (N = 13)): 15%
- Hematuria, number of patients with treatment-related AE (Total (N = 13)): 2
- Hypertrichosis, % of patients with treatment-related AE (Total (N = 13)): 15%
- Hypertrichosis, number of patients with treatment-related AE (Total (N = 13)): 2
- Leukopenia, % of patients with treatment-related AE (Total (N = 13)): 23%
- Leukopenia, number of patients with treatment-related AE (Total (N = 13)): 3
- Nausea, % of patients with treatment-related AE (Total (N = 13)): 23%
- Nausea, number of patients with treatment-related AE (Total (N = 13)): 3
- Palmar–plantar erythrodysesthesia, % of patients with treatment-related AE (Total (N = 13)): 38%
- Palmar–plantar erythrodysesthesia, number of patients with treatment-related AE (Total (N = 13)): 5
- Paronychia, % of patients with treatment-related AE (Total (N = 13)): 69%
- Paronychia, number of patients with treatment-related AE (Total (N = 13)): 9
- Proteinuria, % of patients with treatment-related AE (Total (N = 13)): 23%
- Proteinuria, number of patients with treatment-related AE (Total (N = 13)): 3
- Rash, % of patients with treatment-related AE (Total (N = 13)): 100%
- Rash, number of patients with treatment-related AE (Total (N = 13)): 13
- Skin fissures, % of patients with treatment-related AE (Total (N = 13)): 15%
- Skin fissures, number of patients with treatment-related AE (Total (N = 13)): 2
- Stomatitis, % of patients with treatment-related AE (Total (N = 13)): 61.5%
- Stomatitis, number of patients with treatment-related AE (Total (N = 13)): 8
- Weight decreased, % of patients with treatment-related AE (Total (N = 13)): 23%
- Weight decreased, number of patients with treatment-related AE (Total (N = 13)): 3
- diarrhea, all-causality AE, number of patients [1]: 12
- dry skin, all-causality AE, number of patients [1]: 8
- paronychia, all-causality AE, number of patients [1]: 9
- rash, all-causality AE, number of patients [1]: 13
- stomatitis, all-causality AE, number of patients [1]: 8
- grade 4 or 5 treatment-related adverse events (all cohorts, all cycles): ^aThere were no grade 4 or 5 treatment-related adverse events
- grade 4 AEs (all dose levels): No grade 4 AEs were reported
- patients requiring temporary discontinuations due to TRAEs, number (all in the 45 mg dosing cohort): five
- prolonged QTcF interval, change from baseline (one patient, 15 mg cohort, day 1 cycle 1, grade 1): 26 ms
- treatment-related grade 3 AEs, number (overall): eight
- AEs observed in ≥1 patient during the single-dose administration phase (single-dose administration phase): rash and diarrhea
